Series [1] in a line: Human liver mitochondrial fraction intrinsic clearance. In kind it is in vitro ADME. The following applies: 0.5 mg/mL human liver mitochondrial fraction. Here is the method: Human Liver Mitochondrial (HLMt) fractions contain high quantities of MAO enzymes and therefore, provide a useful model system to measure the clearance of MAO substrates.
A series of investigations using HLMts were conducted to assess the effect of MAO on the metabolism of DMT and deuterated DMT analogues in vitro.

Series [2] in a line: Human hepatocyte stability of D0, D6 and D8 5-MeO-DMT analogues. To be noted: cryopreserved pooled human hepatocytes in suspension, cryopreserved pooled human hepatocytes, 0.5×10^6 viable cells/mL, 60 min; for hepatocyte CLint: read-out: Qualified CLint (μL/min/10^6 cells); for half-life: read-out: Qualified t1/2. Type of series: in vitro ADME. Here is the method: (§1) Test compounds (5 μM) were incubated with cryopreserved hepatocytes in suspension. Samples were removed at 6 time points over the course of a 60 min experiment and test compounds were analysed by LC-MS/MS.
(§2) The final incubation volume was 500 μL.
(§3) Two control compounds were included with each species. Each compound was incubated for 0, 5, 10, 20, 40 and 60 min at 37° C. The reactions were stopped by transferring incubate into acetonitrile at the appropriate time points, in a 1:3 ratio. The termination plates were centrifuged at 3,000 rpm for 30 min at 4° C. to precipitate the protein.
(§4) Following protein precipitation, the sample supernatants were combined in cassettes of up to 4 compounds, internal standard was added and samples analysed using Cyprotex generic LC-MS/MS conditions.
(§5) From a plot of ln peak area ratio (compound peak area/internal standard peak area) against time, the gradient of the line is determined. Subsequently, half-life (t½) and intrinsic clearance (CLint) were calculated using the equations below:
(§6) Elimination rate constant (k)=(−gradient)
(§7) where V=Incubation volume (μL)/Number of cells

Series [3] in a line: Rat hepatocyte stability of D0, D6 and D8 5-MeO-DMT analogues. Type of series: in vitro ADME. To be noted: cryopreserved pooled rat hepatocytes, 0.5×10^6 viable cells/mL, 60 min; for half-life at 1 μM: cryopreserved pooled rat hepatocytes in suspension, read-out: Qualified t1/2; for hepatocyte CLint at 1 μM: read-out: Qualified CLint (μL/min/10^6 cells). Here is the method: as §1, §2, §3, §4, §5, §6, §7

The conditions of series [4]: in vivo; cited from earlier work.
The test system of another series is Human hepatocytes. Put plainly: Human hepatocyte stability of D0, D6 and D8 5-MeO-DMT analogues. In kind it is in vitro ADME. The following applies: for Fold change from 5-MeO-DMT, CLint / Fold change from 5-MeO-DMT, t1/2: Human hepatocytes; for Qualified CLint (μL/min/10^6 cells) / Qualified t1/2: cryopreserved pooled human hepatocytes, 0.5×10^6 viable cells/mL, 60 min. Here is the method:
as §1, §2, §3, §4, §5, §6, §7

For the next series, the system named is Rat hepatocytes. As to the kind of experiment: Rat hepatocyte stability of D0, D6 and D8 5-MeO-DMT analogues. Type of series: in vitro ADME. The following applies: for Fold change from 5-MeO-DMT, CLint / Fold change from 5-MeO-DMT, t1/2: Rat hepatocytes; for Qualified CLint (μL/min/10^6 cells) / Qualified t1/2: cryopreserved pooled rat hepatocytes, 0.5×10^6 viable cells/mL, 60 min. Here is the method:
as §1, §2, §3, §4, §5, §6, §7

For series [5] the following is noted: cited from earlier work.
The nature of series [6]: Human half-life and clearance of DMT calculated from modelled literature data. To be noted: in vivo; for clearance: read-out: clearance rate. The text has this:
DMT is metabolised very quickly in the human body. […] Based on these calculations, we reasoned that DMT is largely metabolised before reaching the human liver.

Series [7] in a line: In vivo pharmacokinetic profile after IV and IM dosing in rats.
Series [8] deals with Human (mixed gender) hepatocytes. Put plainly: Human hepatocyte intrinsic clearance of DMT and deuterated DMT analogues.
Method: Standard final incubation conditions are 1 μM compound in buffer containing nominally ˜0.5 million viable cells/mL, ˜0.9% (v/v) acetonitrile (MeCN) and ˜0.1% (v/v) DMSO (specific assay concentrations outlined above, section 2).
Samples are then centrifuged at 4 oc.
Setting [9] is: calculated from modelled data of Timmermann et al.

Read-outs that look alike come from different tables or passages of the source.

What is called clearance is the rate of elimination divided by the concentration.

On to `NCc1ccccc1` [Benzylamine, benzylamine], for which, in series [1], the “Intrinsic Clearance (μL/min/mg protein)” value was determined as 60.0 μL/min/mg protein and the “half-life” value amounted to 23.2 min.
As to `COc1ccc2[nH]cc(CCN(C)C)c2c1` [Compound 5-MeO-DMT, 5-Methoxy-N,N-dimethyltryptamine], in [2], the hepatocyte CLint is 104 µL/min/1e6 cells and the half-life was 13.3 min. For the same molecule, in series [3], the half-life at 1 μM is 4.46 min and the hepatocyte CLint at 1 μM was 312 µL/min/1e6 cells.
Take `[2H]C([2H])(c1c[nH]c2ccccc12)C([2H])([2H])N(C)C` [Compound D4DMT, α,α,β,β-tetradeuterio-DMT]: in series [4], the “onset and behaviour disrupting effects compared to equal doses of DMT” value was “shorter time to onset and potentiation of behaviour disrupting effects”.
For `[2H]C([2H])([2H])N(CCc1c[nH]c2ccc(OC)cc12)C([2H])([2H])[2H]` [Compound D6-5MeO-DMT, d6-5-Methoxydimethyltryptamine], in the series with Human hepatocytes, the “Fold change from 5-MeO-DMT, CLint” value was found to be 1.2 fold; the “Fold change from 5-MeO-DMT, t1/2” value is reported as 1.2 fold; the “Qualified CLint (μL/min/10^6 cells)” value stood at 85.7 μL/min/10^6 cells; the “Qualified t1/2” value is 16.2 min. In addition, in the series with Rat hepatocytes, the “Fold change from 5-MeO-DMT, CLint” value was 1.5 fold; the “Fold change from 5-MeO-DMT, t1/2” value turned out to be 1.5 fold; the “Qualified CLint (μL/min/10^6 cells)” value is recorded as 205.5 μL/min/10^6 cells; the “Qualified t1/2” value is recorded as 6.76 min.
Take `CNCCc1c[nH]c2ccccc12` [NMT, N-Methyltryptamine]: the “duration of “visuals”” value in [5] (smoking, 50-100 mg) was 15 to 30 s.
Regarding `O=C(c1ccc(OCCN2CCCCC2)cc1)c1c(-c2ccc(O)cc2)sc2cc(O)ccc12` [Raloxifene], in [2], the hepatocyte CLint turned out to be 152 µL/min/1e6 cells and the half-life was determined as 9.13 min. In series [3], the half-life at 1 μM was found to be 11.1 min and the hepatocyte CLint at 1 μM worked out at 125 µL/min/1e6 cells.
Take `CN(C)CCc1c[nH]c2ccccc12` [SPL026, N,N-dimethyltryptamine]: the clearance in series [6] (based on a 70 kg person) was 350 mL/min/kg. In [6] (setting [9]), the half-life is around 5 min and the clearance is 24500 mL/min. In addition, the duration of action result in [5] (in vivo) is on record as “under 20 minutes”. For the same molecule, the “Difference in AUC0-inf between male and female groups” value in series [7] (rats, 2 mg/kg IV fumarate) is recorded as “no significant difference”. In series [1], the “Intrinsic Clearance (μL/min/mg protein)” value came to 161.0 μL/min/mg protein and the “half-life” value is on record as 8.6 min.
With `[2H]C([2H])([2H])N(CCc1c[nH]c2ccccc12)C([2H])([2H])[2H]` [SPL028vii, N,N-hexadeuterio-dimethyltryptamine], the “Intrinsic clearance of SPL026 minus intrinsic clearance of SPL028vii” value in series [8] amounted to 2.3 μL/min/million cells.
With `[2H]C([2H])([2H])N(C([2H])([2H])[2H])C([2H])([2H])Cc1c[nH]c2ccccc12` [SPL028viii, α,α,bis-deuterio-N,N-hexadeuterio-dimethyltryptamine], the “Overall exposure compared with DMT (SPL026)” value in series [7] (rat plasma, following IV and IM dosing (FIGS. 1 to 3)) is reported as “greater overall exposure”. Moreover, the “Total systemic exposure (mean AUC0-inf) compared to SPL026” value in series [7] (rats, equivalent single IV and IM doses, ANOVA) was “significantly higher total systemic exposure”. Besides, the “Cmax compared with DMT (SPL026)” value in [7] (rats, following IM dosing) is listed as “significantly higher”. For the same molecule, the “Intrinsic Clearance (μL/min/mg protein)” value in series [1] is 10.9 μL/min/mg protein.
Regarding `NCCc1c[nH]c2ccc(O)cc12` [Serotonin, serotonin], in [1], the “Intrinsic Clearance (μL/min/mg protein)” value came out at 151.0 μL/min/mg protein and the “half-life” value came to 9.2 min.
For “d8-5-Methoxydimethyltryptamine [Compound D8-5MeO-DMT]”, in the series on Human hepatocytes, the “Fold change from 5-MeO-DMT, CLint” value was determined as 1.8 fold; the “Fold change from 5-MeO-DMT, t1/2” value stood at 1.8 fold; the “Qualified CLint (μL/min/10^6 cells)” value stood at 57.6 μL/min/10^6 cells; the “Qualified t1/2” value was 24.3 min. For the same molecule, in the series with Rat hepatocytes, the “Fold change from 5-MeO-DMT, CLint” value is listed as 1.8 fold; the “Fold change from 5-MeO-DMT, t1/2” value was 1.8 fold; the “Qualified CLint (μL/min/10^6 cells)” value came to 176.0 μL/min/10^6 cells; the “Qualified t1/2” value is 7.89 min.
